Results as given in ChEMBL document CHEMBL4828763, “Discovery of Potent and Selective CDK9 Degraders for Targeting Transcription Regulation in Triple-Negative Breast Cancer” (J Med Chem, 2021).
Calls of active or inactive are those of the source. The rule behind the calls is not given here.

What was measured:
BT-549 = experiment: Growth inhibition of human BT-549 cells assessed as cell viability measured after 4 days by WST8 assay; format: functional, cell-based; conditions: BT-549, 96 h
MDA-MB-231 = experiment: Growth inhibition of human MDA-MB-231 cells assessed as cell viability measured after 4 days by WST8 assay; format: functional, cell-based; conditions: MDA-MB-231, 96 h
MDA-MB-468 = experiment: Growth inhibition of human MDA-MB-468 cells assessed as cell viability measured after 4 days by WST8 assay; format: functional, cell-based; conditions: MDA-MB-468, 96 h
[1] = target: Protein cereblon/Cyclin-dependent kinase 9 (Homo sapiens) (UniProt P50750+Q96SW2); experiment: Protac activity at CRBN/CDK9 in human MDA-MB-231 cells assessed as induction of degradation of CDK9 at 500 nM incubated for 8 hrs by Western blot analysis; format: cell-based
Sequence of Protein cereblon/Cyclin-dependent kinase 9 (Homo sapiens) (P50750 whole entry, looked up): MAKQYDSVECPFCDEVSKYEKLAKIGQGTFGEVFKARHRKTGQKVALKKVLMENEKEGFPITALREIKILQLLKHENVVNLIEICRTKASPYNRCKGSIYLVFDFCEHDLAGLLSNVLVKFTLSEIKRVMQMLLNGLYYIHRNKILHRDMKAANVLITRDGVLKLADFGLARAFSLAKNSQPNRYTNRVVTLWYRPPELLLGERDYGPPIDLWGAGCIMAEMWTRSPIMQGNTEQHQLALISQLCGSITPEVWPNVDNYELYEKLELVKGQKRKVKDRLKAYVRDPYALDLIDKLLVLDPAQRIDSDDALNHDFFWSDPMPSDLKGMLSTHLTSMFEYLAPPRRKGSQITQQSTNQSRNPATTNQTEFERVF
Sequence of Protein cereblon/Cyclin-dependent kinase 9 (Homo sapiens) (Q96SW2 whole entry, looked up): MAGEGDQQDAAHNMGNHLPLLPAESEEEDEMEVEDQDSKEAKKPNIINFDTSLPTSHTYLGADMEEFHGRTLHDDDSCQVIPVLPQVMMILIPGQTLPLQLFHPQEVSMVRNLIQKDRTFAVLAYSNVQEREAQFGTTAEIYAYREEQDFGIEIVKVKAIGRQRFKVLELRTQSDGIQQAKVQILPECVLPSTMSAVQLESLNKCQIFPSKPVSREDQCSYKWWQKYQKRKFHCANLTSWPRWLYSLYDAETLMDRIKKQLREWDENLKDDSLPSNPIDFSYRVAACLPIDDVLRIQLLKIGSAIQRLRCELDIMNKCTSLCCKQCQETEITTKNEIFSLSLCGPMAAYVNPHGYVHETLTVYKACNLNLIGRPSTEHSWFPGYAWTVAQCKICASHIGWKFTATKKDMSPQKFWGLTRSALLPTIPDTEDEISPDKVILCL

| Compound | IC50 (BT-549) [nM] | IC50 (MDA-MB-231) [µM] | IC50 (MDA-MB-468) [µM] | Activity [1] |
| --- | --- | --- | --- | --- |
| CC(C)c1cnn2c(NCc3ccc(CCCCCCNC(=O)COc4cccc5c4C(=O)N(C4CCC(=O)NC4=O)C5=O)cc3N(C)C)nc(OC3CCN(C)CC3)nc12 (stereo not drawn) | 8390 | 5.28 | 5.24 | – |
| CC(C)c1cnn2c(NCc3cc(NC(=O)CCCCCCNC(=O)COc4cccc5c4C(=O)N(C4CCC(=O)NC4=O)C5=O)ccc3N(C)C)nc(OC3CCN(C)CC3)nc12 (stereo not drawn) | > 20000 | > 20 | > 20 | – |
| CC(C)c1cnn2c(NCc3ccc(CCCCCCCOc4cccc5c4C(=O)N(C4CCC(=O)NC4=O)C5=O)cc3N(C)C)nc(OC3CCN(C)CC3)nc12 (stereo not drawn) | 4110 | 4.16 | 2.87 | – |
| CC(C)c1cnn2c(NCc3cccc(CCCCCCNC(=O)COc4cccc5c4C(=O)N(C4CCC(=O)NC4=O)C5=O)c3)cc(NCCCCCCN)nc12 (stereo not drawn) | 12800 | > 20 | 16.3 | – |
| CC(C)c1cnn2c(NCc3ccccc3)cc(NCCCCCCN)nc12 | 12800 | 18.5 | 16.3 | – |
| CC(C)c1cnn2c(NCc3ccccc3N(C)C)nc(OC3CCN(CCOCCOCCOCCNC(=O)COc4cccc5c4C(=O)N(C4CCC(=O)NC4=O)C5=O)CC3)nc12 (stereo not drawn) | > 20000 | > 20 | > 20 | – |
| CC(C)c1cnn2c(NCc3ccccc3)nc(OC3CCN(CCOCCOCCNC(=O)COc4cccc5c4C(=O)N(C4CCC(=O)NC4=O)C5=O)CC3)nc12 (stereo not drawn) | 9880 | > 20 | > 20 | – |
| CC(C)c1cnn2c(NCc3ccccc3-n3ccnc3)nc(OC3CCN(CCOCCOCCOCCNC(=O)COc4cccc5c4C(=O)N(C4CCC(=O)NC4=O)C5=O)CC3)nc12 (stereo not drawn) | 21500 | > 20 | > 20 | – |
| CC(C)c1cnn2c(NCc3ccccc3N(C)C)nc(OC3CCN(CCOCCNC(=O)COc4cccc5c4C(=O)N(C4CCC(=O)NC4=O)C5=O)CC3)nc12 (stereo not drawn) | > 20000 | > 20 | > 20 | – |
| CC(C)c1cnn2c(NCc3ccc(NC(=O)COCCOCCOCCOc4cccc5c4C(=O)N(C4CCC(=O)NC4=O)C5=O)cc3)nc(OC3CCN(C)CC3)nc12 (stereo not drawn) | 4690 | 10.3 | 4.37 | – |
| CC(C)c1cnn2c(NCc3ccccc3)nc(OC3CCN(CCOCCNC(=O)COc4cccc5c4C(=O)N(C4CCC(=O)NC4=O)C5=O)CC3)nc12 (stereo not drawn) | > 20000 | > 20 | > 20 | – |
| CC(C)c1cnn2c(NCc3ccc(NC(=O)CCCCCCNC(=O)COc4cccc5c4C(=O)N(C4CCC(=O)NC4=O)C5=O)cc3N(C)C)nc(OC3CCN(C)CC3)nc12 (stereo not drawn) | 14300 | > 20 | > 20 | – |
| CC(C)c1cnn2c(NCc3ccccc3)cc(NCCCCCCNCCOCCNC(=O)COc3cccc4c3C(=O)N(C3CCC(=O)NC3=O)C4=O)nc12 (stereo not drawn) | > 20000 | > 20 | > 20 | – |
| CC(C)c1cnn2c(NCc3ccccc3-n3ccnc3)nc(OC3CCN(CCOCCNC(=O)COc4cccc5c4C(=O)N(C4CCC(=O)NC4=O)C5=O)CC3)nc12 (stereo not drawn) | > 20000 | > 20 | 15.8 | – |
| CC(C)c1cnn2c(NCc3cc(CCCCCCNC(=O)COc4cccc5c4C(=O)N(C4CCC(=O)NC4=O)C5=O)ccc3N(C)C)nc(OC3CCN(C)CC3)nc12 (stereo not drawn) | 12600 | 12.6 | 17.9 | – |
| CC(C)c1cnn2c(NCc3cccc(NC(=O)CCCCCCNC(=O)COc4cccc5c4C(=O)N(C4CCC(=O)NC4=O)C5=O)c3)nc(OC3CCN(C)CC3)nc12 (stereo not drawn) | 12800 | > 20 | > 20 | – |
| CC(C)c1cnn2c(NCc3ccccc3)cc(NCCCCCCNCCOCCOCCOCCNC(=O)COc3cccc4c3C(=O)N(C3CCC(=O)NC3=O)C4=O)nc12 (stereo not drawn) | > 20000 | > 20 | > 20 | – |
| CC(C)c1cnn2c(NCc3ccc(CCCCCCNC(=O)COc4cccc5c4C(=O)N(C4CCC(=O)NC4=O)C5=O)cc3)cc(NCCCCCCN)nc12 (stereo not drawn) | 12900 | 16.6 | 10.3 | – |

Stronger by IC50 (BT-549), values ahead:

| IC50 (BT-549) [nM] | IC50 (MDA-MB-231) [µM] | IC50 (MDA-MB-468) [µM] | Activity [1] | Compound |
| --- | --- | --- | --- | --- |
| 580 | 0.9 | 0.59 | – | CC(C)c1cnn2c(NCc3ccc(NC(=O)CCCN4CCN(CCCc5cccc6c5CN(C5CCC(=O)NC5=O)C6=O)CC4)cc3)nc(OC3CCN(C)CC3)nc12 (stereo not drawn) |
| 2660 | 4.26 | 4.89 | – | CC(C)c1cnn2c(NCc3ccc(NC(=O)CCCCCCNc4cccc5c4C(=O)N(C4CCC(=O)NC4=O)C5=O)cc3N(C)C)nc(OC3CCN(C)CC3)nc12 (stereo not drawn) |
| 230 | 0.2 | 0.13 | Active | CC(C)c1cnn2c(NCc3ccc(NC(=O)CCCCCCc4cccc5c4CN(C4CCC(=O)NC4=O)C5=O)cc3)nc(OC3CCN(C)CC3)nc12 (stereo not drawn) |
| 1630 | 1.55 | 1.45 | – | CC(C)c1cnn2c(NCc3ccc(NC(=O)CCCCCCNC(=O)COc4cccc5c4C(=O)N(C4CCC(=O)NC4=O)C5=O)cc3)nc(OC3CCN(C)CC3)nc12 (stereo not drawn) |
| 640 | 0.95 | 0.56 | – | CC(C)c1cnn2c(NCc3ccc(NC(=O)CCCCCOc4cccc5c4C(=O)N(C4CCC(=O)NC4=O)C5=O)cc3)nc(OC3CCN(C)CC3)nc12 (stereo not drawn) |
| 2010 | 4.16 | 3.45 | – | CC(C)c1cnn2c(NCc3cccc(CCCCCCCOc4cccc5c4C(=O)N(C4CCC(=O)NC4=O)C5=O)c3N(C)C)nc(OC3CCN(C)CC3)nc12 (stereo not drawn) |
| 170 | 0.26 | 0.18 | Active | CC(C)c1cnn2c(NCc3ccc(NC(=O)CCCCCCOc4cccc5c4C(=O)N(C4CCC(=O)NC4=O)C5=O)cc3)nc(OC3CCN(C)CC3)nc12 (stereo not drawn) |
| 550 | 0.53 | 0.66 | – | CC(C)c1cnn2c(NCc3ccc(NC(=O)CCCCCCNc4cccc5c4C(=O)N(C4CCC(=O)NC4=O)C5=O)cc3)nc(OC3CCN(C)CC3)nc12 (stereo not drawn) |
| 120 | 0.13 | 0.12 | Active | CC(C)c1cnn2c(NCc3ccc(NC(=O)CCCCCCCCOc4cccc5c4C(=O)N(C4CCC(=O)NC4=O)C5=O)cc3)nc(OC3CCN(C)CC3)nc12 (stereo not drawn) |
| 80 | 0.251 | 0.222 | – | CC(C)c1cnn2c(NCc3ccc(NC(=O)CCCCCN4CCN(CCCCCc5cccc6c5CN(C5CCC(=O)NC5=O)C6=O)CC4)cc3)nc(OC3CCN(C)CC3)nc12 (stereo not drawn) |
| 2260 | 9.29 | 3.92 | – | CC(C)c1cnn2c(NCc3ccccc3-n3ccnc3)nc(OC3CCN(C)CC3)nc12 |
| 3780 | 9.2 | 4.59 | – | CC(C)c1cnn2c(NCc3ccc(NC(=O)COCCOCCOc4cccc5c4C(=O)N(C4CCC(=O)NC4=O)C5=O)cc3)nc(OC3CCN(C)CC3)nc12 (stereo not drawn) |
| 470 | 0.39 | 0.53 | Active | CC(C)c1cnn2c(NCc3ccc(NC(=O)CCCCCCOc4cccc5c4CN(C4CCC(=O)NC4=O)C5=O)cc3)nc(OC3CCN(C)CC3)nc12 (stereo not drawn) |
| 2060 | 4.32 | 3.22 | – | CC(C)c1cnn2c(NCc3ccc(CCCCCCCOc4cccc5c4C(=O)N(C4CCC(=O)NC4=O)C5=O)cc3)nc(OC3CCN(C)CC3)nc12 (stereo not drawn) |
| 74 | 0.065 | 0.098 | – | CC(C)c1cnn2c(NCc3ccc(NC(=O)N4CCN(CCCCCc5cccc6c5CN(C5CCC(=O)NC5=O)C6=O)CC4)cc3)nc(OC3CCN(C)CC3)nc12 (stereo not drawn) |
| 1570 | 4.45 | 3.37 | – | CC(C)c1cnn2c(NCc3ccc(CCCOCCOCCOc4cccc5c4C(=O)N(C4CCC(=O)NC4=O)C5=O)cc3)nc(OC3CCN(C)CC3)nc12 (stereo not drawn) |
| 1030 | 11.9 | 8.78 | – | CC(C)c1cnn2c(NCc3ccccc3N(C)C)nc(OC3CCN(C)CC3)nc12 |
| 35 | 0.137 | 0.184 | Active | CC(C)c1cnn2c(NCc3ccc(NC(=O)CCCCCCCCCOc4cccc5c4CN(C4CCC(=O)NC4=O)C5=O)cc3)nc(OC3CCN(C)CC3)nc12 (stereo not drawn) |
| 190 | 0.9 | 0.24 | – | CC(C)c1cnn2c(NCc3ccc(NC(=O)CCCCCN4CCN(CCCc5cccc6c5CN(C5CCC(=O)NC5=O)C6=O)CC4)cc3)nc(OC3CCN(C)CC3)nc12 (stereo not drawn) |
| 530 | 3.01 | 3.07 | – | CC(C)c1cnn2c(NCc3ccccc3)nc(OC3CCN(C)CC3)nc12 |
| 200 | 0.17 | 0.3 | Active | CC(C)c1cnn2c(NCc3ccc(NC(=O)CCCCCCCCOc4cccc5c4CN(C4CCC(=O)NC4=O)C5=O)cc3)nc(OC3CCN(C)CC3)nc12 (stereo not drawn) |
| 40 | 0.072 | 0.104 | Active | CC(C)c1cnn2c(NCc3ccc(NC(=O)CCCCCCCOc4cccc5c4CN(C4CCC(=O)NC4=O)C5=O)cc3)nc(OC3CCN(C)CC3)nc12 (stereo not drawn) |
| 370 | 0.57 | 0.47 | – | CC(C)c1cnn2c(NCc3ccc(NC(=O)CCCCCOc4cccc5c4C(=O)N(C4CCC(=O)NC4=O)C5)cc3)nc(OC3CCN(C)CC3)nc12 (stereo not drawn) |
| 190 | 0.46 | 0.34 | – | CC(C)c1cnn2c(NCc3ccc(NC(=O)CCCN4CCN(CCCCCc5cccc6c5CN(C5CCC(=O)NC5=O)C6=O)CC4)cc3)nc(OC3CCN(C)CC3)nc12 (stereo not drawn) |
